Source: article PMC11999280, “Design and screening of novel endosomal escape compounds that enhance functional delivery of oligonucleotides in vitro” (Molecular Therapy. Nucleic Acids, 2025)

Legend:
Assay type in all cases: cell-based
[1] = system: mCherry-GAL9 expressing HeLa cells; test: GAL9 recruitment assay, HeLa; settings: calculated mean from >3 independent exp.
Procedure: (§1) Experiments assessing GAL9 localization as an indicator for endosomal remodeling were performed as previously described[15] using 8× stablemCherry-GAL9 expressing cell lines, SHSY5Y, U2OS, 16HBE, NCI-H358, HuH7, HepG2, HEK293, and HeLa. For mCherry-GAL9 recruitment, 3,000 or 6,500 cells/well (depending upon cell line) were seeded into 384-well CellCarrier Ultra plates 24 h prior to treatment (PerkinElmer, catalog no. 6007558). An Echo 655T acoustic dispenser (Labcyte) was used for EEE dose-response preparation by transferring to the cell plate. At assay endpoints, cells were PBS washed, 4% paraformaldehyde fixed at room temperature […] (VWR, catalog no. 9713.1000), and nuclei stained with PBS +1 μg/mL Hoechst 33342 (Thermo Fisher Scientific, catalog no. H21492).
(§2) Imaging was performed using a spinning-disk confocal microscope (Yokogawa: CV8000) with a ×20w objective (numerical aperture 1.0). Cells and mCherry-GAL9 structure identification and quantification were done using Columbus image-analysis software (PerkinElmer version 2.9.0). Data processing was done using Spotfire (Tibco version 11.4) and Prism (GraphPad version 9.1.0). Image panels were assembled using the FigureJ plugin for FIJI.[43] All mCherry-GAL9 experiments were performed three times (N = 3) with duplicated wells per treatment (n = 2).

[2] = system: mCherry-GAL9 expressing SHSY5Y cells; test: GAL9 recruitment assay, SHSY5Y; settings: calculated mean from >3 independent exp.
Procedure: as §1, §2

[3] = system: mCherry-GAL9 expressing HEK293 cells; test: GAL9 recruitment assay, HEK293; settings: calculated mean from >3 independent exp.
Procedure: as §1, §2

[4] = system: mCherry-GAL9 expressing 16HBE cells; test: GAL9 recruitment assay, 16HBE; settings: calculated mean from >3 independent exp.
Procedure: as §1, §2

[5] = system: mCherry-GAL9 expressing U2OS cells; test: GAL9 recruitment assay, U2OS; settings: calculated mean from >3 independent exp.
Procedure: as §1, §2

[6] = system: mCherry-GAL9 expressing HuH7 cells; test: GAL9 recruitment assay, HuH7; settings: calculated mean from >3 independent exp.
Procedure: as §1, §2

[7] = system: mCherry-GAL9 expressing HepG2 cells; test: GAL9 recruitment assay, HepG2; settings: calculated mean from >3 independent exp.
Procedure: as §1, §2

[8] = system: HeLa_Luc705 cells (pLuc/705 splice-switching reporter); test: Functional 705-SSO delivery, luciferase splice-switching assay; settings: HeLa-Luc705 + 2 µM SSO; EEE 2.5 - 3 µM; mean from >3 independent experiments
Text: Therefore, next, we functionally screened the SSO delivery in the HeLa_Luc705 reporter cell line. HeLa_Luc705 carries a pLuc/705 splice-switching reporter luciferase gene interrupted by a mutated β-globin intron, which creates a preferentially used cryptic 5′ splice site leading to aberrant splicing. Functional SSO delivery masks the cryptic site, redirecting the splicing machinery to the right splicing site, allowing the measurement of luciferase expression (Figure S1).[25]^,[26]^,[27]^,[28] We used SSO transfection with LF2000 as transfection control and the previously published endosomal escape enhancer CMP05 (here, EEE2) as positive control.[15]
For the assessment of functional SSO therapeutics, a HeLa_Luc705 cell line was grown in DMEM media supplemented with 10% fetal bovine serum (FBS). For most treatments, 10,000 cells/well were seeded in a 96-well plate, 24 h pre-incubated with 1- to 2-μM oligonucleotide, and then treated at the described EEE concentration. At 24 h post-treatment, cells were PBS rinsed and collected for further analysis (treatments and incubation times changed accordingly to the experiment design). Luciferase readout was performed as previously described,[15] using a GloMax 96-well plate microplate luminometer (Promega) immediately after adding 30 μL auto-injected luciferin substrate (Promega Firefly Luciferase Assay System; Thermo Scientific, catalog no. 16174) in a white-walled 96-well plate containing 30 μL 0.1% Triton X-100 (Sigma-Aldrich) cell lysed. Photon exposure time and delay were set to 10 and 2 s after injection. LF2000 was used as the transfection reagent control (Thermo Scientific, catalog no. 11668019). For EEE experiments using 1 or 2 μM SSOs, the control was prepared using lipofection with 100–200 nM SSO; this is to avoid complex induced cell toxicity.
705-SSO was purchased from and synthesized by Integrated DNA Technologies. The 705-SSO sequence was previously published, containing 2′-O-methylated bases and only phosphorothioate-saturated backbone linkages were included.[15] The 705-SSO was high-performance liquid chromatography purified, shipped, and stored in IDTE buffer (10 mM Tris, 0.1 mM EDTA).

[9] = system: mCherry-GAL9 expressing NCI-H358 cells; test: GAL9 recruitment assay, NCI-H358; settings: calculated mean from >3 independent exp.
Procedure: as §1, §2

## COc1nn(C2CCN(CCCO)CC2)cc1Nc1ncc(F)c(-n2ccc3c(C#N)cccc32)n1 [EEE12]
[1]; EEE 0.31 µM
  Gal9 response compared to reference: 0.005
[1]; EEE 0.62 µM
  Gal9 response compared to reference: 0.015
[1]; EEE 1.25 µM
  Gal9 response compared to reference: 0.195
[1]; EEE 2.5 µM
  Gal9 response compared to reference: 0.550
[1]; EEE 5 µM
  Gal9 response compared to reference: 0.394
[1]; EEE 10 µM
  Gal9 response compared to reference: 0.118
[2]; EEE 0.31 µM
  Gal9 response compared to reference: 0.014
[2]; EEE 0.62 µM
  Gal9 response compared to reference: 0.271
[2]; EEE 1.25 µM
  Gal9 response compared to reference: 0.742
[2]; EEE 2.5 µM
  Gal9 response compared to reference: 0.706
[2]; EEE 5 µM
  Gal9 response compared to reference: 0.575
[2]; EEE 10 µM
  Gal9 response compared to reference: 0.177
[3]; EEE 0.31 µM
  Gal9 response compared to reference: 0.023
[3]; EEE 0.62 µM
  Gal9 response compared to reference: 0.122
[3]; EEE 1.25 µM
  Gal9 response compared to reference: 0.432
[3]; EEE 2.5 µM
  Gal9 response compared to reference: 0.716
[3]; EEE 5 µM
  Gal9 response compared to reference: 0.604
[3]; EEE 10 µM
  Gal9 response compared to reference: 0.273
[4]; EEE 0.31 µM
  Gal9 response compared to reference: 0.014
[4]; EEE 0.62 µM
  Gal9 response compared to reference: 0.063
[4]; EEE 1.25 µM
  Gal9 response compared to reference: 0.180
[4]; EEE 2.5 µM
  Gal9 response compared to reference: 0.658
[4]; EEE 5 µM
  Gal9 response compared to reference: 0.681
[4]; EEE 10 µM
  Gal9 response compared to reference: 0.421
[5]; EEE 0.31 µM
  Gal9 response compared to reference: 0.013
[5]; EEE 0.62 µM
  Gal9 response compared to reference: 0.017
[5]; EEE 1.25 µM
  Gal9 response compared to reference: 0.057
[5]; EEE 2.5 µM
  Gal9 response compared to reference: 0.299
[5]; EEE 5 µM
  Gal9 response compared to reference: 0.511
[5]; EEE 10 µM
  Gal9 response compared to reference: 0.588
[6]; EEE 0.31 µM
  Gal9 response compared to reference: 0.014
[6]; EEE 0.62 µM
  Gal9 response compared to reference: 0.031
[6]; EEE 1.25 µM
  Gal9 response compared to reference: 0.143
[6]; EEE 2.5 µM
  Gal9 response compared to reference: 0.357
[6]; EEE 5 µM
  Gal9 response compared to reference: 0.232
[6]; EEE 10 µM
  Gal9 response compared to reference: 0.103
[7]; EEE 0.31 µM
  Gal9 response compared to reference: 0.008
[7]; EEE 0.62 µM
  Gal9 response compared to reference: 0.010
[7]; EEE 1.25 µM
  Gal9 response compared to reference: 0.038
[7]; EEE 2.5 µM
  Gal9 response compared to reference: 0.146
[7]; EEE 5 µM
  Gal9 response compared to reference: 0.517
[7]; EEE 10 µM
  Gal9 response compared to reference: 0.574
[8]
  Luciferase expression compared to reference: 1.720
[9]; EEE 0.31 µM
  Gal9 response compared to reference: 0.018
[9]; EEE 0.62 µM
  Gal9 response compared to reference: 0.032
[9]; EEE 1.25 µM
  Gal9 response compared to reference: 0.128
[9]; EEE 2.5 µM
  Gal9 response compared to reference: 0.574
[9]; EEE 5 µM
  Gal9 response compared to reference: 0.607
[9]; EEE 10 µM
  Gal9 response compared to reference: 0.422

## COc1nn(C2CCN(C)CC2)cc1Nc1ncc(C(F)(F)F)c(-n2ccc3c(C#N)cccc32)n1 [EEE16]
[1]; EEE 0.31 µM
  Gal9 response compared to reference: 0.004
[1]; EEE 0.62 µM
  Gal9 response compared to reference: 0.004
[1]; EEE 1.25 µM
  Gal9 response compared to reference: 0.003
[1]; EEE 2.5 µM
  Gal9 response compared to reference: 0.004
[1]; EEE 5 µM
  Gal9 response compared to reference: 0.004
[1]; EEE 10 µM
  Gal9 response compared to reference: 0.005
[2]; EEE 0.31 µM
  Gal9 response compared to reference: 0.014
[2]; EEE 0.62 µM
  Gal9 response compared to reference: 0.014
[2]; EEE 1.25 µM
  Gal9 response compared to reference: 0.012
[2]; EEE 2.5 µM
  Gal9 response compared to reference: 0.012
[2]; EEE 5 µM
  Gal9 response compared to reference: 0.012
[2]; EEE 10 µM
  Gal9 response compared to reference: 0.042
[3]; EEE 0.31 µM
  Gal9 response compared to reference: 0.023
[3]; EEE 0.62 µM
  Gal9 response compared to reference: 0.020
[3]; EEE 1.25 µM
  Gal9 response compared to reference: 0.019
[3]; EEE 2.5 µM
  Gal9 response compared to reference: 0.022
[3]; EEE 5 µM
  Gal9 response compared to reference: 0.024
[3]; EEE 10 µM
  Gal9 response compared to reference: 0.121
[4]; EEE 0.31 µM
  Gal9 response compared to reference: 0.008
[4]; EEE 0.62 µM
  Gal9 response compared to reference: 0.009
[4]; EEE 1.25 µM
  Gal9 response compared to reference: 0.008
[4]; EEE 2.5 µM
  Gal9 response compared to reference: 0.007
[4]; EEE 5 µM
  Gal9 response compared to reference: 0.011
[4]; EEE 10 µM
  Gal9 response compared to reference: 0.129
[5]; EEE 0.31 µM
  Gal9 response compared to reference: 0.010
[5]; EEE 0.62 µM
  Gal9 response compared to reference: 0.011
[5]; EEE 1.25 µM
  Gal9 response compared to reference: 0.010
[5]; EEE 2.5 µM
  Gal9 response compared to reference: 0.010
[5]; EEE 5 µM
  Gal9 response compared to reference: 0.010
[5]; EEE 10 µM
  Gal9 response compared to reference: 0.024
[6]; EEE 0.31 µM
  Gal9 response compared to reference: 0.009
[6]; EEE 0.62 µM
  Gal9 response compared to reference: 0.007
[6]; EEE 1.25 µM
  Gal9 response compared to reference: 0.008
[6]; EEE 2.5 µM
  Gal9 response compared to reference: 0.012
[6]; EEE 5 µM
  Gal9 response compared to reference: 0.008
[6]; EEE 10 µM
  Gal9 response compared to reference: 0.022
[7]; EEE 0.31 µM
  Gal9 response compared to reference: 0.010
[7]; EEE 0.62 µM
  Gal9 response compared to reference: 0.007
[7]; EEE 1.25 µM
  Gal9 response compared to reference: 0.008
[7]; EEE 2.5 µM
  Gal9 response compared to reference: 0.008
[7]; EEE 5 µM
  Gal9 response compared to reference: 0.009
[7]; EEE 10 µM
  Gal9 response compared to reference: 0.010
[8]
  Luciferase expression compared to reference: 0.810
[9]; EEE 0.31 µM
  Gal9 response compared to reference: 0.014
[9]; EEE 0.62 µM
  Gal9 response compared to reference: 0.017
[9]; EEE 1.25 µM
  Gal9 response compared to reference: 0.014
[9]; EEE 2.5 µM
  Gal9 response compared to reference: 0.018
[9]; EEE 5 µM
  Gal9 response compared to reference: 0.014
[9]; EEE 10 µM
  Gal9 response compared to reference: 0.019
